Measurements reported in BindingDB's records for doi:10.7270/Q2ZC817P (The Scripps Research Institute Molecular Screening Center, 2007).
Counter-ions that a name gives are not always drawn.

molecular target: Sphingosine 1-phosphate receptor 1 (Homo sapiens, UniProt P21453); assay: potentiators of S1P1 agonist response, dose response, cell-based, potentiator mode, 60K MLSMR set (AID 466); settings: not given
Sequence (P21453 whole entry): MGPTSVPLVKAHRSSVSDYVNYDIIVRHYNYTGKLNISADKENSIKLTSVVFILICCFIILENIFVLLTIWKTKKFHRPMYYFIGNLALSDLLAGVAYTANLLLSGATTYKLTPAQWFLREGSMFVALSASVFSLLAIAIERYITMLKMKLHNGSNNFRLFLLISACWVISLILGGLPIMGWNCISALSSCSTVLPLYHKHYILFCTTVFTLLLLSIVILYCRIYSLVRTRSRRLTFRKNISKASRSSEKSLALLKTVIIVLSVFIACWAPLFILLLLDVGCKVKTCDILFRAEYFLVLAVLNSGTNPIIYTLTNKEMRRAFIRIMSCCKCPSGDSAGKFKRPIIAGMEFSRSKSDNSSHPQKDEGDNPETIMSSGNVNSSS

Row | SMILES | EC50 [µM]
1 | Cc1cc(C(=O)CC#N)c(C)n1-c1ccc(OC(F)F)cc1 [3-[1-[4-(difluoromethoxy)phenyl]-2,5-dimethyl-3-pyrrolyl]-3-oxopropanenitrile] | > 30
2 | CCOc1ccc(C(=O)Nc2c(C(N)=O)oc3ccccc23)cc1 [3-[(4-ethoxybenzoyl)amino]-1-benzofuran-2-carboxamide] | 3.67
3 | Cc1ccc(O)c(NC(=O)CCC2CCCCC2)c1 [3-cyclohexyl-N-(2-hydroxy-5-methyl-phenyl)propionamide] | > 95
4 | Cc1ccsc1C(=O)OCC(=O)c1cc(C)n(CC2CCCO2)c1C (stereo unspecified) [3-methyl-2-thiophenecarboxylic acid [2-[2,5-dimethyl-1-(2-oxolanylmethyl)-3-pyrrolyl]-2-oxoethyl] ester] | 8.31
5 | Cn1c(=O)oc2cc(S(=O)(=O)N3CCCC(C(=O)N4CC=C(c5ccccc5)CC4)C3)ccc21 (stereo unspecified) [3-methyl-6-[3-(4-phenyl-3,6-dihydro-2H-pyridine-1-carbonyl)piperidin-1-yl]sulfonyl-1,3-benzoxazol-2-one] | 9.49
6 | Nc1ccc(N2CCCCCC2)cc1 [4-(1-azepanyl)aniline;hydrochloride] | > 30
7 | CCOc1cc(C2NCc3ccccc3-n3cccc32)ccc1O (stereo unspecified) [4-(5,6-dihydro-4H-pyrrolo[1,2-a][1,4]benzodiazepin-4-yl)-2-ethoxy-phenol;hydrochloride] | 15
8 | CC(C)c1ccc2oc(-c3ccc(N)cc3)nc2c1 [4-(5-propan-2-yl-1,3-benzoxazol-2-yl)aniline] | 2.14
9 | Cc1nc2sccn2c1-c1csc(NCc2ccccc2)n1 [4-(6-methyl-5-imidazo[2,1-b]thiazolyl)-N-(phenylmethyl)-2-thiazolamine] | 3.6
10 | O=C(Nc1nccs1)c1ccc(S(=O)(=O)NCC2CCCCC2)cc1 [4-(Cyclohexylmethyl-sulfamoyl)-N-thiazol-2-yl-benzamide] | 7.5
11 | CCOC(=O)c1cnc(-n2nc(C)cc2C)nc1NC1CCCCC1 [4-(cyclohexylamino)-2-(3,5-dimethyl-1-pyrazolyl)-5-pyrimidinecarboxylic acid ethyl ester] | 5.91
12 | CN(C)S(=O)(=O)c1ccc(C(=O)Nc2nc(-c3cccs3)cs2)cc1 [4-(dimethylsulfamoyl)-N-(4-thiophen-2-yl-1,3-thiazol-2-yl)benzamide] | > 10
13 | CCN(C1CCCCC1)S(=O)(=O)c1ccc(S(=O)(=O)NCc2ccncc2)cc1 [4-N-cyclohexyl-4-N-ethyl-1-N-(pyridin-4-ylmethyl)benzene-1,4-disulfonamide] | 7.02
14 | COC(=O)c1ccc(OCC(O)Cn2nnc3ccccc32)cc1 (stereo unspecified) [4-[3-(1-benzotriazolyl)-2-hydroxypropoxy]benzoic acid methyl ester] | > 95

The remaining lines, values ahead:

Row | EC50 [µM] | SMILES
15 | 5.53 | Cc1cc(NC(=O)c2oc3ccccc3c2C)ccc1-n1cnnn1 [3-Methyl-benzofuran-2-carboxylic acid (3-methyl-4-tetrazol-1-yl-phenyl)-amide]
16 | 4.77 | O=C(CCc1nc(-c2ccccc2F)no1)Nc1ccc(Oc2ccccc2)cc1 [3-[3-(2-fluorophenyl)-1,2,4-oxadiazol-5-yl]-N-(4-phenoxyphenyl)propanamide]
17 | > 10 | CCn1c(NC(=O)c2cccc(Cn3cc(Cl)cn3)c2)nc2ccccc21 [3-[(4-chloranylpyrazol-1-yl)methyl]-N-(1-ethylbenzimidazol-2-yl)benzamide]
18 | 4.76 | CCOc1ccc(C(=O)Nc2ccc(Cl)cn2)cc1Cl [3-chloranyl-N-(5-chloranylpyridin-2-yl)-4-ethoxy-benzamide]
19 | 5.31 | Cc1nnc2ccc(Oc3ccc(-c4ccccc4)cc3)nn12 [3-methyl-6-(4-phenylphenoxy)-[1,2,4]triazolo[4,3-b]pyridazine]
20 | > 10 | Oc1ccc(-c2nnc(-c3ccc(O)cc3)nn2)cc1 [4,4'-(1,2,4,5-tetrazine-3,6-diyl)diphenol]
21 | 6.67 | O=C(NCc1ccccc1)N1CCN(c2ccc(Cl)c(Cl)c2)CC1 [4-(3,4-dichlorophenyl)-N-(phenylmethyl)-1-piperazinecarboxamide]
22 | > 95 | c1ccc(N2CCN(c3ncnc4c3oc3ccccc34)CC2)cc1 [4-(4-phenyl-1-piperazinyl)benzofuro[3,2-d]pyrimidine]
23 | 0.437 | Oc1ccc(-c2nnc(SCC3CCCCC3)o2)cc1 [4-(5-Cyclohexylmethylsulfanyl-[1,3,4]oxadiazol-2-yl)-phenol]
24 | 6.63 | CCOC(=O)N1CCN(C(=O)C2CCN(c3ncnc4c3sc3cccc(F)c34)CC2)CC1 [4-[1-(9-fluorobenzothiopheno[3,2-d]pyrimidin-4-yl)isonipecotoyl]piperazine-1-carboxylic acid ethyl ester]
25 | 8.25 | Cc1ccccc1-c1noc(-c2ccc(O)cc2)n1 [4-[3-(2-methylphenyl)-2H-1,2,4-oxadiazol-5-ylidene]-1-cyclohexa-2,5-dienone]
26 | 4.07 | O=C(c1cc(-c2ccc(O)cc2)on1)N1CCc2ccccc2C1 [4-[3-(3,4-dihydro-1H-isoquinolin-2-ylcarbonyl)-2H-1,2-oxazol-5-ylidene]cyclohexa-2,5-dien-1-one]
27 | 6.42 | O=C(Nc1cccc(C(F)(F)F)c1)N1CCC(c2nc(-c3ccc(F)cc3)no2)CC1 [4-[3-(4-Fluoro-phenyl)-[1,2,4]oxadiazol-5-yl]-piperidine-1-carboxylic acid (3-trifluoromethyl-phenyl)-amide]
28 | 5.9 | O=C(Nc1ccc(Cl)cc1)N1CCC(c2nc(-c3ccc(F)cc3)no2)CC1 [4-[3-(4-Fluoro-phenyl)-[1,2,4]oxadiazol-5-yl]-piperidine-1-carboxylic acid (4-chloro-phenyl)-amide]

same assay, conditions: inactive by the depositor's call

Row | SMILES | EC50 [µM]
29 | CC/N=c1\sc(C(=O)NCCc2ccccc2)cc(=O)n1CC [3-Ethyl-2-[(Z)-ethylimino]-4-oxo-3,4-dihydro-2H-[1,3]thiazine-6-carboxylic acid phenethyl-amide] | 23.1
30 | CCN(CC)S(=O)(=O)c1cccc(S(=O)(=O)c2cccc(S(=O)(=O)N(CC)CC)c2)c1 [3-[3-(diethylsulfamoyl)phenyl]sulfonyl-N,N-diethyl-benzenesulfonamide] | 23.4
31 | C=CCn1c(SCC(=O)c2cccs2)nc2sc(CC)cc2c1=O [3-allyl-6-ethyl-2-[[2-keto-2-(2-thienyl)ethyl]thio]thieno[2,3-d]pyrimidin-4-one] | 38.8
32 | Cc1cc(C(=O)COC(=O)c2csc3c2CCCC3)c(C)n1C [4,5,6,7-tetrahydro-1-benzothiophene-3-carboxylic acid [2-oxo-2-(1,2,5-trimethyl-3-pyrrolyl)ethyl] ester] | 17.5
33 | Oc1nnc(Sc2ncnc3sccc23)n1CCc1ccccc1 [4-(2-phenylethyl)-3-(4-thieno[2,3-d]pyrimidinylthio)-1H-1,2,4-triazol-5-one] | 15
34 | CCCOC(=O)c1ccc(OCC(O)Cn2c(C)nc3ccccc32)cc1 (stereo unspecified) [4-[2-hydroxy-3-(2-methyl-1-benzimidazolyl)propoxy]benzoic acid propyl ester] | 10

Further lines, results first:

Row | EC50 [µM] | SMILES
35 | 12.2 | O=C(OC1CCCCC1)c1ccc(NC(=O)c2ccco2)cc1 [4-(2-furoylamino)benzoic acid cyclohexyl ester]
36 | 13.1 | Cc1ccc(Cl)cc1N1CCN(C(=O)COc2ccc(S(=O)(=O)NC(C)C)cc2)CC1 [4-[2-[4-(5-chloranyl-2-methyl-phenyl)piperazin-1-yl]-2-oxidanylidene-ethoxy]-N-propan-2-yl-benzenesulfonamide]
